# Results as given in patent publication US20130023553A1, “PEGYLATED OPIOIDS WITH LOW POTENTIAL FOR ABUSE AND SIDE EFFECTS” (Nektar Therapeutics, priority 2010, published 2013).
# Experiments:
# Male CD-1 mice = experiment: Assessment of CNS side effects in mice (Straub tail, muscle rigidity, pinna reflex)
# Text: The objective of this study was to provide an approximation of the side effect profile of various oligomeric conjugates for comparison to the parent compounds by measuring various gross behavioral and physiological signs following administration of compound.
# Additional evaluations included muscle rigidity and pinna reflex.
# Male CD-1 mice from Charles River Laboratories, Raleigh, N.C., weighing from 16-18 grams were maintained on a regular light/dark cycle (lights on 0600-1800) with ad libitum food and water for 1 week before commencement of testing. N=2 per treatment condition, i.e., separate mice for each dose of each test article, injection was performed via a 25-gauge ⅝-inch needle on a 1-mL tuberculin syringe for the s.c. route and a 22-gauge stainless steel mouse feeding tube for the p.o. route (Becton, Dickinson & Co., Franklin Lakes, N.J.). Each treatment condition was divided about evenly between two observers. […] Test article was administered (s.c. or p.o., and the mouse was placed immediately in the observation chamber). One-half, 1, 2, and 3 hours later, the animal was observed undisturbed for gross signs such as locomotor ataxia, tremor, hyperactivity, hypoactivity, convulsions, hindlimb splay, and Straub tail, and then removed and assessed for muscle tone (normal, rigid, flaccid), pinna reflex (presence or absence), righting reflex (intact or lost), and placing (whether or not the forepaws are extended when the mouse is placed near a surface).
# Each of the tables show the number of animals responding at each dose, where N=2. […] A bolded value indicates the lowest dose at which a response was detected.
# mice = experiment: Oral dose giving maximal analgesia; format: in vivo
# Sprague-Dawley male rats = experiment: Motor coordination (sedation) on the rotarod treadmill; format: in vivo; settings: for sedation compared to oxycodone: equianalgesic dose
# Protocol: The following studies were conducted to evaluate the effect of orally administered PEG-6-O-hydroxycodone on motor coordination (i.e., sedation) in rats using the rat rotarod Treadmill. Motor coordination was evaluated at 0.5 h and 1 h post-dose.
# The rats weighed between 240 to 280 grams on the day of study. Rats were not fasted prior to dosing.
# Animals were trained to run on the treadmill for 2 consecutive days prior to the day of study. Animals were trained at a constant speed of 10 RPM and were given as many trials as necessary until they were able to stay on the rotarod for 300 seconds. Rats that were able to stay on the rod for 300 seconds were considered trained. On the day of study, animals were placed on the rotarod treadmill at 0, 30, and 60 minutes post dose. The treadmill was set at a constant speed of 4 RPM for 15 seconds, at this point the timer was started (T=0). After this 15 second period, the rotarod was set to accelerate from 4-40 RPM over a five minute period (using the built in program of the rotarod). The time (in seconds) that each animal stopped running and tripped the plate was recorded as the animal's run time. Animals that ran for 300 seconds were taken of the treadmill and 300 seconds was recorded as the run time.
# The objective of this study was to evaluate the effect of 10, 30, 100, and 300 mg/kg of PEG-6-O-hydroxycodone on motor coordination in rats using the rotarod treadmill. All doses were administered orally and evaluated at 0.5 h and 1 h post-dose.
smiles,measurement,setting,value
"COCCOCCOCCOCCOCCOCCOC1CCC2(O)C3Cc4ccc(OC)c5c4C2(CCN3C)C1O5 (stereo not drawn) [α-6-mPEG6-O-hydroxycodone, α-6-mPEG6-O-oxycodone]","Loss Pinna, fold difference relative to parent compound","Male CD-1 mice; PO, 1/2 responding",>>
same,"Muscle Rigidity, fold difference relative to parent compound","Male CD-1 mice; PO, 1/2 responding",>100 fold
same,"Straub Tail, fold difference relative to parent compound","Male CD-1 mice; PO, 1/2 responding",100 fold
same,"Loss Pinna, fold difference relative to parent compound","Male CD-1 mice; PO, 2/2 responding",>>
same,"Muscle Rigidity, fold difference relative to parent compound","Male CD-1 mice; PO, 2/2 responding",>30 fold
same,"Straub Tail, fold difference relative to parent compound","Male CD-1 mice; PO, 2/2 responding",>100 fold
same,"Loss Pinna, fold difference relative to parent compound","Male CD-1 mice; SC, 1/2 responding",>30 fold
same,"Muscle Rigidity, fold difference relative to parent compound","Male CD-1 mice; SC, 1/2 responding",100 fold
same,"Straub Tail, fold difference relative to parent compound","Male CD-1 mice; SC, 1/2 responding",100 fold
same,"Loss Pinna, fold difference relative to parent compound","Male CD-1 mice; SC, 2/2 responding",33 fold
same,"Muscle Rigidity, fold difference relative to parent compound","Male CD-1 mice; SC, 2/2 responding",100 fold
same,"Straub Tail, fold difference (reduction in CNS activity) relative to parent compound","Male CD-1 mice; SC, 2/2 responding",100 fold
same,decrease in CNS activity relative to parent opioid,"Male CD-1 mice; male, CD-1, mouse, in vivo, oral",10-100 fold
same,mice showing the straub tail response,Male CD-1 mice; oral doses up to 100 mg/kg,none
same,"Loss Pinna, number of animals responding (N=2)","Male CD-1 mice; oral, 1 mg/kg",0
same,"Muscle Rigidity, number of animals responding (N=2)","Male CD-1 mice; oral, 1 mg/kg",0
same,"Straub Tail Effect, number of animals responding (N=2)","Male CD-1 mice; oral, 1 mg/kg",0
same,"Loss Pinna, number of animals responding (N=2)","Male CD-1 mice; oral, 3 mg/kg",0
same,"Muscle Rigidity, number of animals responding (N=2)","Male CD-1 mice; oral, 3 mg/kg",0
same,"Straub Tail Effect, number of animals responding (N=2)","Male CD-1 mice; oral, 3 mg/kg",0
same,"Loss Pinna, number of animals responding (N=2)","Male CD-1 mice; oral, 10 mg/kg",0
same,"Muscle Rigidity, number of animals responding (N=2)","Male CD-1 mice; oral, 10 mg/kg",0
same,"Straub Tail Effect, number of animals responding (N=2)","Male CD-1 mice; oral, 10 mg/kg",0
same,"Loss Pinna, number of animals responding (N=2)","Male CD-1 mice; oral, 30 mg/kg",0
same,"Muscle Rigidity, number of animals responding (N=2)","Male CD-1 mice; oral, 30 mg/kg",0
same,"Straub Tail Effect, number of animals responding (N=2)","Male CD-1 mice; oral, 30 mg/kg",0
same,"Loss Pinna, number of animals responding (N=2)","Male CD-1 mice; oral, 100 mg/kg",0
same,"Muscle Rigidity, number of animals responding (N=2)","Male CD-1 mice; oral, 100 mg/kg",1
same,"Straub Tail Effect, number of animals responding (N=2)","Male CD-1 mice; oral, 100 mg/kg",0
same,"Loss Pinna, number of animals responding (N=2)","Male CD-1 mice; oral, 300 mg/kg",0
same,"Muscle Rigidity, number of animals responding (N=2)","Male CD-1 mice; oral, 300 mg/kg",1
same,"Straub Tail Effect, number of animals responding (N=2)","Male CD-1 mice; oral, 300 mg/kg",1
same,lowest dose causing a detectable response in the straub test,"Male CD-1 mice; oral, highest dose tested",300 mg/kg
same,oral dose at which maximal analgesia was obtained,mice,100 mg/kg
same,"motor impairment, overall","Sprague-Dawley male rats; 300 mg/kg oral, 0.5 h and 1 h post-dose",slight motor impairment
same,"rotarod performance, overall","Sprague-Dawley male rats; 10, 30, 100 mg/kg oral",failed to impair rotarod performance
same,sedation compared to oxycodone,Sprague-Dawley male rats; listed as PEG-6-O-hydroxycodone,produces less sedation than the parent opioid
same,sedation compared to oxycodone,Sprague-Dawley male rats; listed as mPEG6-O-hydroxycodone,less sedation
same,time spent on the rotarod compared to saline control,"Sprague-Dawley male rats; initial study, 30 mg/kg oral, 0.5 h post-dose",showed a reduction in time spent on the rotarod
same,rotarod performance compared to saline control,"Sprague-Dawley male rats; initial study, 10, 100 or 300 mg/kg oral, 0.5 h and 1 h post-dose",did not exhibit impaired rotarod performance
same,time spent on rotarod compared to saline control,"Sprague-Dawley male rats; repeated study, 300 mg/kg oral, 0.5 h and 1 h post-dose",showed a reduction in time spent on rotarod
same,rotarod performance compared to saline control,"Sprague-Dawley male rats; repeated study, 10, 30 or 100 mg/kg oral, 0.5 h and 1 h post-dose",did not demonstrate impaired rotarod performance
